“Also recorded” adds a separate entry of the source.

One assay concerns the target T1, Human leukocyte elastase (HLE) (Homo sapiens, UniProt P08246).
T1 construct: purchased Elastin Products, St. Louis, Mo
T1 sequence (P08246 30-267): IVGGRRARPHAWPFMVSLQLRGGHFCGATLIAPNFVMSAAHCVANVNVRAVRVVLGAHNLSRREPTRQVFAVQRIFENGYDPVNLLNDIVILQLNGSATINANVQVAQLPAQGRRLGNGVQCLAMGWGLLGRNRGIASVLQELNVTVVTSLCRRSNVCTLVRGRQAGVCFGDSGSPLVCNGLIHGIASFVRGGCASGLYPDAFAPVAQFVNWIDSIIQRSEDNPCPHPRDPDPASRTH
Put plainly: Spectrophotometric assay of HLE inactivation (in vitro). Type of assay: biochemical.
Details: not given
The method, then: The appropriate amount of inhibitor in acetonitrile was mixed with PPE in phosphate buffer solution and placed in a constant temperature bath. Aliquots were withdrawn at different time intervals and transferred to a cuvette containing 100 uL of substrate, 140 uL of acetonitrile, and 2 mL of phosphate buffer, pH 6.5. After incubating for 30 seconds, the absorbance change was monitored for two minutes at 347.5 nm. […] Controlled reactions for 100% PPE activity were run in the presence of acetonitrile. A similar procedure was followed for HLE.
The reaction of an irreversible inhibitor with PPE and HLE may be illustrated by the scheme shown below: [drawing 5] where EI is the noncovalently bound enzyme-inactivator complex and E-I is the final product with the inhibitor covalently bound to the enzyme. The kinetics data were analyzed according to known procedures. The apparent pseudo-first-order inactivation rate constants were determined from the slopes of semilogarithmic plots of enzymatic activity remaining versus time using the following equation: [formula] where Et /EO is the amount of active enzyme remaining after time "t".
The assay procedure used was the procedure identified relative to the tests above in Table I.
(kobsd) were determined by plotting in [E]t /[E]o vs time.
Consider `CC[S+]([O-])C[C@H](NC(=O)S(=O)(=O)O)C(=O)OC` (stereo partly drawn) [Compound 4, Table VI], for which the “Inhibition of HLE (in words)” value is “inactive”.
For the molecule `CCC[C@@H](NC(=O)S(=O)(=O)O)C(=O)OC` [Compound 5, Table II], the “Inhibition of HLE (in words)” value is “no inhibitory activity”.
Still for that read-out and setting: next, `COC(=O)CNC(=O)S(=O)(=O)O` [Compound 1, Table II]: “devoid of any inhibitory activity”.
As to `COC(=O)[C@H](CC[S+](C)[O-])NC(=O)S(=O)(=O)O` (stereo partly drawn) [Compound 2, Table VI], the “Inhibition of HLE (in words)” value is “inactive”.
As for `COC(=O)[C@H](C)NC(=O)S(=O)(=O)O` [Compound 2, Table II], the “Inhibition of HLE (in words)” value was “devoid of any inhibitory activity”.

The same assay, now with this note: Table II monopotassium sulfonate salts.
On to `CCC[C@@H](NC(=O)S(=O)(=O)O)C(=O)OC` [Compound 5, Table II], for which the “k2 /Ki (HLE)” value is “inactive”.
For `COC(=O)CNC(=O)S(=O)(=O)O` [Compound 1, Table II], the “k2 /Ki (HLE)” value was “inactive”.
Same read-out and setting: next, `COC(=O)[C@H](C)NC(=O)S(=O)(=O)O` [Compound 2, Table II]: “inactive”.

Staying with this assay, now noted: Table II monopotassium sulfonate salts; read-out: k2 /Ki (HLE).
As to `CCCC[C@H](NC(=O)S(=O)(=O)O)C(=O)OC` [Compound 6, Table II], the kinact/KI came to 920 M⁻¹ s⁻¹.
On to `COC(=O)[C@@H](NC(=O)S(=O)(=O)O)C(C)C` [Compound 3, Table II], for which the kinact/KI came to 800 M⁻¹ s⁻¹.
Regarding `COC(=O)[C@H](Cc1ccccc1)NC(=O)S(=O)(=O)[O-].[K+]` [Compound 9, Table II, N-(Sulfocarbonyl)-L-phenylalanine Methyl Ester, Monopotassium Salt], the kinact/KI is 530 M⁻¹ s⁻¹.
Same read-out and setting: the same measure for `COC(=O)[C@H](CC(C)C)NC(=O)S(=O)(=O)O` [Compound 7, Table II]: 260 M⁻¹ s⁻¹; for `COC(=O)[C@H](CCSC)NC(=O)S(=O)(=O)O` [Compound 8, Table II]: 260 M⁻¹ s⁻¹.

The assay is the same for the next values; noted with them: Table III; inactive: no inhibition at 243fold excess of inhibitor over enzyme, 10min incubation.
In the case of `O=C(Nc1ccccc1C(F)(F)F)n1ccnc1` [Compound 9, Table III], the “kobsd /[I], inhibition of leukocyte elastase” value was “inactive”.
Turning to `O=C(Nc1ccc(Cl)cc1)S(=O)(=O)O` [Compound 3, Table III], the “kobsd /[I], inhibition of leukocyte elastase” value is “inactive”.
Take `O=C(Nc1cccc(F)c1)n1ccnc1` [Compound 8, Table III]: the “kobsd /[I], inhibition of leukocyte elastase” value is “inactive”.
The same measure, in the same setting: the same measure for `O=C(Nc1ccccc1)S(=O)(=O)O` [Compound 1, Table III]: “inactive”; for `O=C(NCc1cccc(F)c1)n1ccnc1` [Compound 14]: “inactive”.
Take `O=C(Nc1cccc(Cl)c1)S(=O)(=O)O` [Compound 2, Table III]: the “kobsd /[I], inhibition of leukocyte elastase” value was “inactive”.
In the case of `O=C(NCc1ccc(C(F)(F)F)cc1)n1ccnc1` [Compound 11, Table III], the “kobsd /[I], inhibition of leukocyte elastase” value is “inactive”.
Regarding `O=C(Nc1cccc(C(F)(F)F)c1)S(=O)(=O)O` [Compound 6, Table III], the “kobsd /[I], inhibition of leukocyte elastase” value is “inactive”.
Consider `O=C(NCc1cccc(F)c1)S(=O)(=O)O` [Compound 12, Table III], for which the “kobsd /[I], inhibition of leukocyte elastase” value is “inactive”.
On the same count and under the same terms, next, `O=C(Nc1ccccc1C(F)(F)F)S(=O)(=O)O` [Compound 5, Table III]: “inactive”; `O=C(NCc1cccc(C(F)(F)F)c1)n1ccnc1` [Compound 15]: “inactive”; `O=C(Nc1cccc(C(F)(F)F)c1)n1ccnc1` [Compound 10, Table III]: “inactive”.
In the case of `O=C(NCc1cccc(C(F)(F)F)c1)S(=O)(=O)O` [Compound 13, Table III], the “kobsd /[I], inhibition of leukocyte elastase” value was “inactive”.
With `O=C(Nc1ccc(C(F)(F)F)cc1)S(=O)(=O)O` [Compound 7, Table III], the “kobsd /[I], inhibition of leukocyte elastase” value was “inactive”.
Take `O=C(Nc1cccc(F)c1)S(=O)(=O)O` [Compound 4, Table III]: the “kobsd /[I], inhibition of leukocyte elastase” value is “inactive”.

Staying with this assay, now noted: Table III; inactive: no inhibition at 243fold excess of inhibitor over enzyme, 10min incubation; read-out: kobsd /[I], inhibition of leukocyte elastase.
`O=C(NCCc1cccc(F)c1)n1ccccc1=O` [Compound 22]: the kinact/KI turned out to be 317 M⁻¹ s⁻¹.
Take `O=C(NCCc1cccc(C(F)(F)F)c1)n1ccnc1` [Compound 20]: the kinact/KI is 483 M⁻¹ s⁻¹.
In the case of `O=C(NCCc1ccccc1)n1ccnc1` [Compound 18], the kinact/KI came out at 35 M⁻¹ s⁻¹.
On to `O=C(NCCc1cccc(C(F)(F)F)c1)ON1C(=O)CCC1=O` [Compound 26], for which the kinact/KI came out at 13500 M⁻¹ s⁻¹.
Take `O=C(NCCc1ccccc1)ON1C(=O)CCC1=O` [Compound 24]: the kinact/KI was 927 M⁻¹ s⁻¹.
As to `O=C(NCCc1cccc(C(F)(F)F)c1)n1ccccc1=O` [Compound 23], the kinact/KI was found to be 11700 M⁻¹ s⁻¹.
In the case of `O=C(NCCc1cccc(F)c1)ON1C(=O)CCC1=O` [Compound 25], the kinact/KI stood at 823 M⁻¹ s⁻¹.
As for `O=C(NCCc1cccc(F)c1)n1ccnc1` [Compound 19], the kinact/KI was found to be 38 M⁻¹ s⁻¹.
Take `O=C(NCCc1ccccc1)n1ccccc1=O` [Compound 21]: the kinact/KI came out at 500 M⁻¹ s⁻¹.
Same read-out and setting: the same measure for `O=C(NCCc1cccc(F)c1)S(=O)(=O)O` [Compound 17, Table III]: 18 M⁻¹ s⁻¹.
Still for that read-out and setting: next, `O=C(NCCc1ccccc1)S(=O)(=O)O` [Compound 16]: 4 M⁻¹ s⁻¹.

The same assay, now with this note: Table IV, derivatives of phenylalanine; read-out: kobsd /[I], inhibition of leukocyte elastase.
For the molecule `COC(=O)[C@H](Cc1ccccc1)NC(=O)S(=O)(=O)O` [Compound 27], the kinact/KI was found to be 550 M⁻¹ s⁻¹.
Same read-out and setting: the same measure for `COC(=O)[C@H](Cc1ccccc1)NC(=O)n1ccnc1` [Compound 28]: 2070 M⁻¹ s⁻¹; for `COC(=O)C(Cc1cccc(F)c1)NC(=O)n1ccnc1` (stereo not drawn) [Compound 33]: 318 M⁻¹ s⁻¹; for `COC(=O)[C@H](Cc1ccccc1)NC(=O)ON1C(=O)CCC1=O` [Compound 30]: 6640 M⁻¹ s⁻¹.
The same measure, in the same setting: the same measure for `COC(=O)[C@H](Cc1ccccc1)NC(=O)n1ccccc1=O` [Compound 29]: 2330 M⁻¹ s⁻¹.
Consider `COC(=O)C(Cc1cccc(F)c1)NC(=O)S(=O)(=O)O` (stereo not drawn) [Compound 31], for which the kinact/KI is 57 M⁻¹ s⁻¹.
Take `COC(=O)C(Cc1cccc(C(F)(F)F)c1)NC(=O)n1ccnc1` (stereo not drawn) [Compound 34]: the kinact/KI turned out to be 1100 M⁻¹ s⁻¹.
On to `COC(=O)C(Cc1cccc(C(F)(F)F)c1)NC(=O)S(=O)(=O)O` (stereo not drawn) [Compound 32], for which the kinact/KI is 13 M⁻¹ s⁻¹.

Still in this assay, the particulars now being: Table V, succinimide derivatives.
In the case of `CS(=O)(=O)ON1C(=O)CCC1=O` [H, OSO2CH3], the “kobsd /[I], inhibition of leukocyte elastase” value is “inactive”.
With `Cc1ccc(S(=O)(=O)ON2C(=O)CCC2=O)cc1`, the “kobsd /[I], inhibition of leukocyte elastase” value is “inactive”.

The same assay, now with this note: Table V, succinimide derivatives; read-out: kobsd /[I], inhibition of leukocyte elastase.
Consider `CN(C)S(=O)(=O)ON1C(=O)CC(Cc2ccccc2)C1=O` (stereo not drawn) [BENZYL, OSO2N(CH3)2], for which the kinact/KI is 323 M⁻¹ s⁻¹.
Consider `O=C1CC(Cc2ccccc2)C(=O)N1OS(=O)(=O)c1ccccc1` (stereo not drawn), for which the kinact/KI is 1170 M⁻¹ s⁻¹.
For the molecule `O=C1CC(Cc2ccccc2)C(=O)N1OS(=O)(=O)c1ccc(Br)cc1` (stereo not drawn), the kinact/KI turned out to be 1650 M⁻¹ s⁻¹.
`Cc1ccc(S(=O)(=O)ON2C(=O)CC(Cc3ccccc3)C2=O)cc1` (stereo not drawn): the kinact/KI was found to be 1610 M⁻¹ s⁻¹.
`CCCCS(=O)(=O)ON1C(=O)CC(Cc2ccccc2)C1=O` (stereo not drawn) [BENZYL, OSO2(CH2)3 CH3]: the kinact/KI was 1680 M⁻¹ s⁻¹.
The same measure, in the same setting: the same measure for `CCCCCCCCS(=O)(=O)ON1C(=O)CC(Cc2ccccc2)C1=O` (stereo not drawn) [BENZYL, OSO2(CH2)7 CH3]: 1270 M⁻¹ s⁻¹.

The same assay, now with this note: Table VI, sulfur-containing amino acid esters.
Consider `CC[S+]([O-])C[C@H](NC(=O)S(=O)(=O)O)C(=O)OC` (stereo partly drawn) [Compound 4, Table VI], for which the “kobsd /[I], inhibition of HLE” value is “inactive”.
Take `COC(=O)[C@H](CSCc1ccccc1)NC(=O)S(=O)(=O)O` [Compound 6, Table VI]: the “kobsd /[I], inhibition of HLE” value was “inactive”.
Still for that read-out and setting: next, `COC(=O)[C@H](CSSC[C@H](NC(=O)S(=O)(=O)O)C(=O)OC)NC(=O)S(=O)(=O)O` [Compound 7, Table VI]: “inactive”; `COC(=O)[C@H](CC[S+](C)[O-])NC(=O)S(=O)(=O)O` (stereo partly drawn) [Compound 2, Table VI]: “inactive”.

The same assay, now with this note: Table VI, sulfur-containing amino acid esters; read-out: kobsd /[I], inhibition of HLE.
As to `COC(=O)CSC[C@H](NC(=O)S(=O)(=O)O)C(=O)OC` [Compound 8, Table VI], the kinact/KI came out at 17 M⁻¹ s⁻¹.
The same measure, in the same setting: next, `COC(=O)[C@H](CSC)NC(=O)n1ccnc1` [Compound 9, Table VI]: 4050 M⁻¹ s⁻¹; `COC(=O)CSC[C@H](NC(=O)n1ccnc1)C(=O)OC` [Compound 11, Table VI]: 15 M⁻¹ s⁻¹; `CCSC[C@H](NC(=O)n1ccnc1)C(=O)OC` [Compound 10, Table VI]: 4230 M⁻¹ s⁻¹.
Regarding `COC(=O)[C@H](CSC)NC(=O)S(=O)(=O)O` [Compound 5, Table VI], the kinact/KI was found to be 1510 M⁻¹ s⁻¹.

The same assay, now with this note: listed as L-leucine sulfonate salt.
For `COC(=O)[C@H](CC(C)C)NC(=O)S(=O)(=O)O` [Compound 7, Table II], the “Inhibition of HLE (in words)” value is given as “also deactivate HLE but were not as effective; also recorded: also inactivate HLE, but not as efficiently; also recorded: effective inhibitors”.

Staying with this assay, now noted: listed as L-methionine sulfonate salt.
With `COC(=O)[C@H](CCSC)NC(=O)S(=O)(=O)O` [Compound 8, Table II], the “Inhibition of HLE (in words)” value is given as “also deactivate HLE but were not as effective; also recorded: also inactivate HLE, but not as efficiently; also recorded: effective inhibitors”.

Staying with this assay, now noted: listed as L-norleucine sulfonate salt.
For the molecule `CCCC[C@H](NC(=O)S(=O)(=O)O)C(=O)OC` [Compound 6, Table II], the “Inhibition of HLE (in words)” value is “very potent inhibitors; also recorded: effective inhibitors”.

The same assay, now with this note: listed as L-phenylalanine sulfonate salt, Monopotassium Salt.
As to `COC(=O)[C@H](Cc1ccccc1)NC(=O)S(=O)(=O)[O-].[K+]` [Compound 9, Table II, N-(Sulfocarbonyl)-L-phenylalanine Methyl Ester, Monopotassium Salt], the “Inhibition of HLE (in words)” value was “also deactivate HLE but were not as effective; also recorded: also inactivate HLE, but not as efficiently; also recorded: effective inhibitors”.

The same assay, now with this note: listed as L-valine sulfonate salt.
For the molecule `COC(=O)[C@@H](NC(=O)S(=O)(=O)O)C(C)C` [Compound 3, Table II], the “Inhibition of HLE (in words)” value was “very potent inhibitors; also recorded: effective inhibitors”.

Source of the values: patent US4929736A, “Latent isocynate derivatives useful for deactivating enzymes” (Board of Trustees of the Wichita State University, priority 1986, dated 1990).
